Experiments:
Type in all cases: cell-based, human
[1] = tested on: BT-474 breast cancer cell; test: Viable cell count using Cell Counting Kit-F; conditions: BT474; HER2-expressing cancer; five days of culture
Description: (§1) BT-474 breast cancer cell, MDA-MB-453 breast cancer cell, A549 non-small cell lung cancer cell and LNCaP prostate cancer cell were used as human HER2-expressing cells while MDA-MB-231 breast cancer cell and A498 kidney cancer cell (all purchased from ATCC) were used as HER2-nonexpressing cells. Each of the cells used had been seeded into a 96-plate at 500cells/150 µL/well and cultured overnight. Each of the compounds, i.e., antimycin (final concentrations: 1, 0.1, 0.01 and 0.001 µmol/L), 2,4-dinitrophenol (final concentrations: 0.6, 0.2, 0.06 and 0.02 mmol/L), metformin (final concentrations: 25, 5, 1 and 0.2 mmol/L) and AICAR (final concentrations: 25, 5, 1 and 0.2 mmol/L) was diluted with a medium and added for 50 µL/well at a time to the final concentrations mentioned above. Following five days of culture at 37°C in 5% CO2, the cells were counted using Cell Counting Kit-F (Dojindo Laboratories).
(§2) Viable cell count using Cell Counting Kit-F was carried out by the following method according to the attached instruction. The supernatant was removed from the 96-well plate after five days of culture. Cell Counting Kit-F diluted 1000-fold with an RPMI medium (phenol red-free, serum-free) was added for 100 µL/well at a time. After 30 minutes of reaction at room temperature, fluorescence (excitation wavelength; 480 nm, fluorescent wavelength; 530 nm) was determined with a fluorescent plate reader.
(§3) From the determination results, percentage of the fluorescence level in the wells added with the compound was determined assuming that the fluorescence level in the wells without the addition of the compound (control) is 100%, and the remaining cellular quantity was determined in % with respect to that of the control.
(§4) BT-474 breast cancer cell, MDA-MB-453 breast cancer cell and LNCaP prostate cancer cell were used as human HER2-expressing cells while MDA-MB-231 breast cancer cell and A498 kidney cancer cell (all purchased from ATCC) were used as HER2-nonexpressing cells. Each of the cells used had been seeded into a 96-well plate at 500 cells/150 µL/well and cultured overnight. Troglitazone (final concentrations: 25, 6.25 and 1.56 µmol/L) was diluted with a medium, and added for 50 µL/well at a time to the final concentrations mentioned above. Following five days of culture at 37°C in 5% CO2, the cells were counted using Cell Counting Kit-F (Dojindo Laboratories).
as §3, with “troglitazone” for “the compound”

[2] = tested on: MDA-MB-453 breast cancer cell; test: Viable cell count using Cell Counting Kit-F; conditions: MB453; HER2-expressing cancer; five days of culture
Description: as §1, §2, §3, §4
as §3, with “troglitazone” for “the compound”

[3] = tested on: LNCaP prostate cancer cell; test: Viable cell count using Cell Counting Kit-F; conditions: LNCaP; HER2-expressing cancer; five days of culture
Description: as §1, §2, §3, §4
as §3, with “troglitazone” for “the compound”

[4] = tested on: MAPK; test: Western blotting of phosphorylated MAPK in BT-474 cells; conditions: Example 2, 4-fold dilution series from 1 µmol/L in 5 steps, 2 hours
Description: (§5) Human HER2-expressing human breast cancer cell line BT-474 (purchased from American Tissue Culture Collection (ATCC)) was seeded into a 24-multiwell plate (BT-474: 1.2 x 10^5 cells/well), and cultured overnight in a carbon dioxide gas incubator (5% CO2, 37°C). A 4-fold dilution series of a mitochondrial respiratory chain complex inhibiting compound (complex I: rotenone, complex III: antimycin, complex V: oligomycin: Wako Pure Chemical Industries) was added starting from a final concentration of 1 µmol/L in 5 steps while continuing culture. After 2 hours, the broth was removed, and the cells were lysed with an SDS sample buffer (200 µL). Western blotting analysis was performed as follows. Specifically, this cell lysate (8 µL) was separated by an SDS-PAGE method (gel concentration: 7.5-15%) (Analytical Biochemistry, No. 166, pp. 368-379, 1987), and transferred to a nitrocellulose membrane (BioRad). Then, an antibody specific to phosphorylated HER2 (Cell signaling technology, Code# 2244), an anti-phosphorylated Akt antibody specific to downstream antiapoptotic signal transducing molecule Akt (Cell signaling technology, Code# 9271) and an anti-phosphorylated MAPK antibody specific to downstream proliferation signal transducing molecule MAPK (Cell signaling technology, Code# 9101) were used to detect the antibody with an ECL system (Amersham) to quantify the amount of phosphorylated protein by an image analysis.
(§6) Human HER2-expressing human cancer cell line BT-474 (purchased from ATCC) was seeded into a 24-multiwell plate (1.2 x 10^5 cells/well) and cultured overnight in a carbon dioxide gas incubator (20% O2, 5% CO2, 37°C). A 3-fold dilution series of metformin that activates AMPK (The Journal of Biological Chemistry, Vol. 279, No. 42, pp. 43940-43951, 2004) was added starting from a final concentration of 15 mmol/L in 5 steps while continuing culture. Two hours later, the broth was removed and the cells were lysed with an SDS sample buffer (200 µL). This cell lysate (8 µL) was separated by an SDS-PAGE method (gel concentration: 7.5-15%) (Analytical Biochemistry, No. 166, pp. 368-379, 1987). Then, western blotting analysis was performed in the same manner as in Example 1 to quantify phosphorylated HER2, phosphorylated Akt and phosphorylated MAPK.

[5] = tested on: Akt; test: Western blotting of phosphorylated Akt in BT-474 cells; conditions: Example 2, 4-fold dilution series from 1 µmol/L in 5 steps, 2 hours
Description: as §5, §6

Compound | minimum concentrations for inhibiting cell proliferation for 50% or more [1] | minimum concentrations for inhibiting cell proliferation for 50% or more [2] | minimum concentrations for inhibiting cell proliferation for 50% or more [3] | MAPK phosphorylation [4] | Akt phosphorylation [5]
O=[N+]([O-])c1ccc(O)c([N+](=O)[O-])c1 [2,4-dinitrophenol] | <0.02 mmol/L | <0.02 mmol/L | <0.02 mmol/L |  | 
antimycin | 1e-06 mmol/L | 1e-06 mmol/L | 1e-06 mmol/L | suppressions of Akt and MAPK phosphorylations were also confirmed | suppressions of Akt and MAPK phosphorylations were also confirmed
